pIC50: −log10 of the molar value.
These compounds were tested against T1, GR (Homo sapiens, UniProt P04150) (assay: In Vitro GR Luciferase Reporter Assay (antagonist mode, CHO-K1-GR-MMTV-Luc reporter cells)). Conditions: antagonist assay with 10 nM Dexamethasone, 18-24 hours.
T1 construct: expressed in transfected cells; host or cells: CHO-K1
T1 sequence (P04150 1-777): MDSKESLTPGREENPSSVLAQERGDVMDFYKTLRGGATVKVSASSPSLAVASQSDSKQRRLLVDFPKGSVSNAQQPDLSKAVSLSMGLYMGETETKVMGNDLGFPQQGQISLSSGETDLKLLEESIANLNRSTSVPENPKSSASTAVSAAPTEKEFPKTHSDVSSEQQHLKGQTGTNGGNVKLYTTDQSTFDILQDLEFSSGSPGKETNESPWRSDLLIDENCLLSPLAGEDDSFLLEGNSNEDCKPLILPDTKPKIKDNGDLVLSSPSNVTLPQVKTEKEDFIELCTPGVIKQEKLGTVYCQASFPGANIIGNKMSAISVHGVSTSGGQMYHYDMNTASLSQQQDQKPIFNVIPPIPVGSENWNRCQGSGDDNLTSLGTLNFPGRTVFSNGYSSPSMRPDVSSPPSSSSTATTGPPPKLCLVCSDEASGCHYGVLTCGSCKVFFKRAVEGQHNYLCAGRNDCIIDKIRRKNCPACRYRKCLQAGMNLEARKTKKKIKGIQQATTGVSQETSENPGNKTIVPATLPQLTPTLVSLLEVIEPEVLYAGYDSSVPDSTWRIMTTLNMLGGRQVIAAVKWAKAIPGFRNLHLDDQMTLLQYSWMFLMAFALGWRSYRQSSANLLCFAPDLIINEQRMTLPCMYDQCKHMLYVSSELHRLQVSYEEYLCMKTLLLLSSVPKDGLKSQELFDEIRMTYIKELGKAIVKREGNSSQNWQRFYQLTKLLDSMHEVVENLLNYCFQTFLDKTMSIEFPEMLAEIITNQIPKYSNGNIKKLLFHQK
Type: cell-based
Text: Example A: In Vitro GR Luciferase Reporter Assay
Cell Line: CHO-K1-GR-MMTV-Luc reporter cells
Culture Media: DMEM (with phenol red)+10% FBS
Assay Media: DMEM (without phenol red)+10% CSS
Culture CHO-K1I-GR-MMTV-Luc reporter cells in 15 cm plates in Culture Media at conditions less than 90% confluence.
Prepare 200×DMSO 1:5 serial dilutions of control and test compounds in 96-well non-sterile V bottom plate in DMSO, 8serial dilutions for each compound.
Prepare 5× Assay Media diluted compound serial dilutions in 96-well non-sterile V bottom plate: Add 97.5 uL/well of Assay Media into 96-well then add 2.5 ul of 200× concentration of compounds and mix well.
Seed cells for Antagonist Assay: […] CHO-K1-GR-MMTV-Luc reporter cells were seeded in a Corning 3707 flat clear bottom 384-well white TC plate in 20 ul of Assay Media containing 12.5 nM Dexamethasone (final concentration=10 nM).
Add compounds: 5 ul of assay media diluted compounds were added to appropriate wells and followed a quick spin (1000 rpm, 10 sec) to bring media and cells to the bottom of plate. The plates were covered with SealMate film to avoid evaporation and placed in 37° C. incubator for approximately 18-24 hours.
Read plates: Equilibrate appropriate amount of Promega OneGlo luciferase reagent to room temperature. Remove the plates from incubator and add 25 uL of OneGlo reagent/well by multiple channel pipette and read the plates with Tecan F500 luminometer within 3 minutes.
The ability of the compounds disclosed herein to inhibit GR activity was quantified and the respective IC50 value was determined. Table 1and Table 2provide the cellular IC50 values of compounds disclosed herein.

| pIC50 | SMILES |
| --- | --- |
| ≥ 7.00 | O=C(c1ccccn1)[C@]12Cc3cnn(-c4ccc(F)cc4)c3C=C1CC[C@H](S(=O)(=O)c1cc(C(F)(F)F)ccn1)C2 [Example 43, ((4aS,6S)-1-(4-fluorophenyl)-6-((4-(trifluoromethyl)pyridin-2-yl)sulfonyl)-1,4,5,6,7,8-hexahydro-4aH-benzo[f]indazol-4a-yl)(pyridin-2-yl)methanone] |
| ≥ 7.00 | O=C(c1ccccn1)[C@]12Cc3cnn(-c4ccc(F)cc4)c3C=C1CC[C@H](S(=O)(=O)C1CCCCC1)C2 [Example 35, ((4aS,6S)-6-(cyclohexylsulfonyl)-1-(4-fluorophenyl)-1,4,5,6,7,8-hexahydro-4aH-benzo[f]indazol-4a-yl)(pyridin-2-yl)methanone] |
| 6.00 to 7.00 | CN(c1ccccc1)S(=O)(=O)[C@H]1CCC2=Cc3c(cnn3-c3ccc(F)cc3)C[C@]2(C(=O)c2ccccn2)C1 [Example 92, (4aS,6S)-1-(4-fluorophenyl)-N-methyl-N-phenyl-4a-picolinoyl-4,4a,5,6,7,8-hexahydro-1H-benzo[f]indazole-6-sulfonamide] |
| ≥ 7.00 | O=C(c1ccccn1)[C@]12Cc3cnn(-c4ccc(F)cc4)c3C=C1CC[C@H](S(=O)(=O)c1ccncc1)C2 [Example 47, ((4aS,6S)-1-(4-fluorophenyl)-6-(pyridin-4-ylsulfonyl)-1,4,5,6,7,8-hexahydro-4aH-benzo[f]indazol-4a-yl)(pyridin-2-yl)methanone] |
| ≥ 7.00 | Cn1cc(S(=O)(=O)[C@H]2CCC3=Cc4c(cnn4-c4ccc(F)cc4)C[C@]3(C(=O)c3ccc(C4CC4)cn3)C2)cn1 [Example 72, (5-cyclopropylpyridin-2-yl)((4aS,6S)-1-(4-fluorophenyl)-6-((1-methyl-1H-pyrazol-4-yl)sulfonyl)-1,4,5,6,7,8-hexahydro-4aH-benzo[f]indazol-4a-yl)methanone] |
| ≥ 7.00 | Cc1ccc(C(=O)[C@]23Cc4cnn(-c5ccc(F)cc5)c4C=C2CC[C@H](S(=O)(=O)c2ccccc2)C3)nc1 [Example 45, ((4aS,6S)-1-(4-fluorophenyl)-6-(phenylsulfonyl)-1,4,5,6,7,8-hexahydro-4aH-benzo[f]indazol-4a-yl)(5-methylpyridin-2-yl)methanone] |
| ≥ 7.00 | CN(C(=O)c1ccccc1)[C@H]1CCC2=Cc3c(cnn3-c3ccc(F)cc3)C[C@]2(C(=O)c2ccccn2)C1 [Example 89, N-((4aS,6S)-1-(4-fluorophenyl)-4a-picolinoyl-4,4a,5,6,7,8-hexahydro-1H-benzo[f]indazol-6-yl)-N-methylbenzamide] |
| ≥ 7.00 | O=C(c1cc(C(F)(F)F)ccn1)[C@]12Cc3cnn(-c4ccc(F)cc4)c3C=C1CC[C@@H](S(=O)(=O)c1cccc(C(F)(F)F)c1)C2 [Example 17, ((4aS,6R)-1-(4-fluorophenyl)-6-((3-(trifluoromethyl)phenyl)sulfonyl)-1,4,5,6,7,8-hexahydro-4aH-benzo[f]indazol-4a-yl)(4-(trifluoromethyl)pyridin-2-yl)methanone] |

Same assay, conditions: antagonist mode, 10 nM Dexamethasone

| pIC50 | SMILES |
| --- | --- |
| ≥ 7.00 | Cn1ncc(S(=O)(=O)N(C2CC2)[C@H]2CCC3=Cc4c(cnn4-c4ccc(F)cc4)C[C@]3(C(=O)c3nccs3)C2)n1 [Example 173, N-cyclopropyl-N-((4aS,6S)-1-(4-fluorophenyl)-4a-(thiazole-2-carbonyl)-4,4a,5,6,7,8-hexahydro-1H-benzo[f]indazol-6-yl)-2-methyl-2H-1,2,3-triazole-4-sulfonamide] |
| ≥ 7.00 | CO[C@]1(C)C[C@H](N([C@H]2CCC3=Cc4c(cnn4-c4ccc(F)cc4)C[C@]3(C(=O)c3cc(Cl)ccn3)C2)S(=O)(=O)c2ccn(C)n2)C1 [Example 381, N-((4aS,6S)-4a-(4-chloropicolinoyl)-1-(4-fluorophenyl)-4,4a,5,6,7,8-hexahydro-1H-benzo[f]indazol-6-yl)-N-((1s,3R)-3-methoxy-3-methylcyclobutyl)-1-methyl-1H-pyrazole-3-sulfonamide] |
| ≥ 7.00 | CC(C)N([C@H]1CCC2=Cc3c(cnn3-c3ccc(F)cc3)C[C@]2(C(=O)c2ncc(C(F)(F)F)s2)C1)S(=O)(=O)c1ccc(F)cc1 [Example 209, 4-fluoro-N-((4aS,6S)-1-(4-fluorophenyl)-4a-(5-(trifluoromethyl)thiazole-2-carbonyl)-4,4a,5,6,7,8-hexahydro-1H-benzo[f]indazol-6-yl)-N-isopropylbenzenesulfonamide] |
| ≥ 7.00 | CCN([C@H]1CCC2=Cc3c(cnn3-c3ccc(F)cc3)C[C@]2(C(=O)c2ncc(C3CC3)s2)C1)S(=O)(=O)c1cnn(C)c1 [Example 154, N-((4aS,6S)-4a-(5-cyclopropylthiazole-2-carbonyl)-1-(4-fluorophenyl)-4,4a,5,6,7,8-hexahydro-1H-benzo[f]indazol-6-yl)-N-ethyl-1-methyl-1H-pyrazole-4-sulfonamide] |
| ≥ 7.00 | CN([C@H]1CCC2=Cc3c(cnn3-c3ccc(F)cc3)C[C@]2(C(=O)c2nccs2)C1)S(=O)(=O)c1ccn(C)n1 [Example 139, N-((4aS,6S)-1-(4-fluorophenyl)-4a-(thiazole-2-carbonyl)-4,4a,5,6,7,8-hexahydro-1H-benzo[f]indazol-6-yl)-N,1-dimethyl-1H-pyrazole-3-sulfonamide] |
| ≥ 7.00 | Cn1cnc(S(=O)(=O)N(CC2CC2)[C@H]2CCC3=Cc4c(cnn4-c4ccc(F)cc4)C[C@]3(C(=O)c3cc(F)ccn3)C2)n1 [Example 409, N-(cyclopropylmethyl)-N-((4aS,6S)-1-(4-fluorophenyl)-4a-(4-fluoropicolinoyl)-4,4a,5,6,7,8-hexahydro-1H-benzo[f]indazol-6-yl)-1-methyl-1H-1,2,4-triazole-3-sulfonamide] |
| ≥ 7.00 | Cn1cc(S(=O)(=O)CC2CCC3=Cc4c(cnn4-c4ccc(F)cc4)C[C@]3(C(=O)c3ncc(C(F)(F)F)s3)C2)cn1 (stereo partly drawn) [Example 375, ((4aR)-1-(4-fluorophenyl)-6-(((1-methyl-1H-pyrazol-4-yl)sulfonyl)methyl)-1,4,5,6,7,8-hexahydro-4aH-benzo[f]indazol-4a-yl)(5-(trifluoromethyl)thiazol-2-yl)methanone] |
| ≥ 7.00 | Cn1ccc(S(=O)(=O)N([C@H]2CCC3=Cc4c(cnn4-c4ccc(F)cc4)C[C@]3(C(=O)c3cc(C(F)(F)F)ccn3)C2)[C@H]2C[C@@](O)(C(F)(F)F)C2)n1 [Example 369, N-((4aS,6S)-1-(4-fluorophenyl)-4a-(4-(trifluoromethyl)picolinoyl)-4,4a,5,6,7,8-hexahydro-1H-benzo[f]indazol-6-yl)-N-((1r,3S)-3-hydroxy-3-(trifluoromethyl)cyclobutyl)-1-methyl-1H-pyrazole-3-sulfonamide] |
| ≥ 7.00 | Cn1ccc(S(=O)(=O)N(CC(=O)OC(C)(C)C)[C@H]2CCC3=Cc4c(cnn4-c4ccc(F)cc4)C[C@]3(C(=O)c3cc(C(F)(F)F)ccn3)C2)n1 [Example 400, tert-butyl N-((4aS,6S)-1-(4-fluorophenyl)-4a-(4-(trifluoromethyl)picolinoyl)-4,4a,5,6,7,8-hexahydro-1H-benzo[f]indazol-6-yl)-N-((1-methyl-1H-pyrazol-3-yl)sulfonyl)glycinate] |
| ≥ 7.00 | Cn1cc(S(=O)(=O)N(CC(C)(C)O)[C@H]2CCC3=Cc4c(cnn4-c4ccc(F)cc4)C[C@]3(C(=O)c3ncc(C(F)(F)F)s3)C2)nn1 [Example 301, N-((4aS,6S)-1-(4-fluorophenyl)-4a-(5-(trifluoromethyl)thiazole-2-carbonyl)-4,4a,5,6,7,8-hexahydro-1H-benzo[f]indazol-6-yl)-N-(2-hydroxy-2-methylpropyl)-1-methyl-1H-1,2,3-triazole-4-sulfonamide] |
| ≥ 7.00 | CN([C@H]1CCC2=Cc3c(cnn3-c3ccc(F)cc3)C[C@]2(C(=O)c2nccs2)C1)S(=O)(=O)c1cnn(C)c1 [Example 133, N-((4aS,6S)-1-(4-fluorophenyl)-4a-(thiazole-2-carbonyl)-4,4a,5,6,7,8-hexahydro-1H-benzo[f]indazol-6-yl)-N,1-dimethyl-1H-pyrazole-4-sulfonamide] |

— patent publication US20210122730A1, “GLUCOCORTICOID RECEPTOR MODULATORS” (ORIC Pharmaceuticals, Inc., priority 2017, published 2021)
